For five compounds, Activity results are on record in ChEMBL document CHEMBL1811882, “Synthesis and in vitro evaluation of novel pro-drugs for the treatment of nephropathic cystinosis” (Bioorg Med Chem, 2011).

The source made the active and inactive calls. The calls are words filed in the database; no cut-off is given here.

Test system in the first data set: not listed separately
In words: Cytotoxicity against cystinotic human fibroblasts at 50 uM after 72 hrs by Alamar blue assay. The class given is cell-based. The following applies: fibroblast.
As for `Cl.Cl.NCCSSCCNC(=O)CCCC(=O)NCCSSCCNC(=O)CCCC(=O)NCCSSCCN`, the Activity entry is “Non-toxic”.
As for `Cl.Cl.N[C@@H](Cc1ccccc1)C(=O)NCCSSCCNC(=O)CCCC(=O)NCCSSCCNC(=O)CCCC(=O)NCCSSCCNC(=O)[C@@H](N)Cc1ccccc1`, the Activity entry is “Non-toxic”.
For `NCCS` [CYSTEAMINE], the Activity entry is “Non-toxic”.
Same read-out and setting: for `Cl.Cl.N[C@@H](Cc1ccccc1)C(=O)NCCSSCCNC(=O)CCC(=O)NCCSSCCNC(=O)CCC(=O)NCCSSCCNC(=O)[C@@H](N)Cc1ccccc1` the value was “Non-toxic”; for `Cl.Cl.NCCSSCCNC(=O)CCC(=O)NCCSSCCNC(=O)CCC(=O)NCCSSCCN`, “Non-toxic”.

The subject of another data set is Fibroblast. In words: Reduction of intralysosomal cystine in cystinotic human fibroblasts at 50 uM after 24 hrs by Bradford method relative to control. The class given is functional, cell-based.
Settings: not given
Turning to `Cl.Cl.NCCSSCCNC(=O)CCCC(=O)NCCSSCCNC(=O)CCCC(=O)NCCSSCCN`, the result was Active.
In the case of `Cl.Cl.N[C@@H](Cc1ccccc1)C(=O)NCCSSCCNC(=O)CCCC(=O)NCCSSCCNC(=O)CCCC(=O)NCCSSCCNC(=O)[C@@H](N)Cc1ccccc1`, the outcome was Active.
Regarding `NCCS` [CYSTEAMINE], the outcome was Active.
As to `Cl.Cl.N[C@@H](Cc1ccccc1)C(=O)NCCSSCCNC(=O)CCC(=O)NCCSSCCNC(=O)CCC(=O)NCCSSCCNC(=O)[C@@H](N)Cc1ccccc1`, the result was Active.
As to `Cl.Cl.NCCSSCCNC(=O)CCC(=O)NCCSSCCNC(=O)CCC(=O)NCCSSCCN`, the result was Active.
